Source: patent US9949979B2, “Use of inhibitors of the activity or function of PI3K” (NOVARTIS AG, priority 2011, dated 2018)

What was measured:
[1] = tested on: TLR9; assay: TLR9-induced IFNalpha in isolated human pDCs (CpG2216, AlphaLISA); type: cell-based; settings: read-out: TLR9-ligand induced IFNα in human pDCs IC50
Procedure: (§1) 2.4 Determination of TLR9-Induced IFNalpha in Human Peripheral Blood Mononuclear Cells (PBMCs) and Isolated Plasmacytoid Dendritic Cells (pDCs)
Human PBMCs were prepared using Buffy Coats as source material from healthy donations (approx. 50 ml obtained from Blutspendezentrum SRK Basel) and processed as indicated above. […]
(§2) Compounds were pre-diluted in 100% v/v DMSO (#41640-100 mL; Sigma-Aldrich), followed by transfer in Media (to achieve a final DMSO concentration of 0.25%). […] Plates were briefly centrifuged (200×g for 2 min at 22° C.) and supernatant samples (30 μl) removed for quantification of IFNα levels.
For quantification of IFNalpha the human interferon AlphaLISA Kit (#AL264F) from PerkinElmer was used. […] After incubation, the plates were read with an EnVision™ multiplate reader equipped with the ALPHA option using the instrument's own “AlphaScreen standard settings” (e.g. total measurement time: 550 ms, Laser 680 nm excitation time: 180 ms, mirror: D640 as, emission filter: M570w, center wavelength 570 nm, bandwidth 100 nm, transmittance 75%). Data were collected for analysis and quantification of IFNα levels.
Data were analysed using Excel XL fit 4.0 (Microsoft) with XLfit add-in (IDBS; version 4.3.2). Specific IFNα concentrations were determined following extrapolation to standard curves using human IFNα B (2b). […]

[2] = tested on: TLR9; assay: TLR9-induced IFNalpha in human PBMC (CpG2216, AlphaLISA); type: cell-based; settings: read-out: TLR9-ligand induced IFNα in human PBMC IC50
Procedure: as §1
Human blood (ca. 75 ml) was collected in 10 S-Monovette tubes containing Heparin (S-Monovette 7.5 mL NH Heparin 16 IU/mL blood; Starstedt). Leucosep™ tubes (30 mL #227290; Greiner Bio-one) were prepared by addition of 15 ml lymphocyte separation medium LSM1077™ per tube (#J15-004; PAA Laboratories) and centrifugation for 30 sec at 1000 g. Some 25 ml blood was transferred to Leucosep™ tubes following dilution with equal parts of PBS (without Ca2+/Mg2+; #14190-094). […] The PBMC were counted using a Countess® Automated cell counter (sample was pre-diluted 1:10 in Media, prior to the addition of equal volume (10 μl) of Trypan Blue). […]
as §2
For quantification of IFNalpha the human interferon AlphaLISA Kit (#AL264F) from PerkinElmer was used. […] Data were collected for analysis and quantification of IFNα levels.
Data were analysed using Excel XL fit 4.0 (Microsoft) with XLfit add-in (IDBS; version 4.3.2). […]

IC50 [1]: 33 nM
IC50 [2]: 109 nM
SMILES: CCC(=O)N1CC[C@H](Nc2ncnc3c2CN(c2cnc(OC)c(C(F)(F)F)c2)CC3)C1 [Example 67, 1-{(S)-3-[6-(6-Methoxy-5-trifluoromethyl-pyridin-3-yl)-5,6,7,8-tetrahydro-pyrido[4,3-d]pyrimidin-4-ylamino]-pyrrolidin-1-yl}-propan-1-one]
